# ChEMBL document CHEMBL1201862, “PubChem BioAssay data set” (2004)
#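 Following 48 hours of exposure in 96-well plates, responses at five concentrations were used to interpolate endpoints linearly. At the GI50, growth is halved.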 Active and inactive are the calls of the source. Rule as the data show it: active = GI50 up to about 1.1 µM and inactive = higher.
# What was measured:
# Experiment in all cases: NCI-60 cell line screen, 48 h
# [1] = test system: 786-0
# [2] = test system: BT-549
# [3] = test system: COLO 205
# [4] = test system: HCT-15
# [5] = test system: HOP-62
# [6] = test system: IGROV-1
# [7] = test system: KM12
# [8] = test system: LOX IMVI
# [9] = test system: MDA-N
# [10] = test system: Malme-3M
# [11] = test system: NCI-H460
# [12] = test system: OVCAR-5
# [13] = test system: SK-MEL-5
# [14] = test system: SN12C
# [15] = test system: SNB-75
# [16] = test system: T47D
# [17] = test system: UACC-257
# [18] = test system: NCI-H23
# [19] = test system: SK-MEL-28
# [20] = test system: SR
SMILES,GI50 [1],GI50 [2],GI50 [3],GI50 [4] [µM],GI50 [5],GI50 [6],GI50 [7],GI50 [8],GI50 [9],GI50 [10],GI50 [11],GI50 [12],GI50 [13],GI50 [14],GI50 [15],GI50 [16],GI50 [17],GI50 [18],GI50 [19],GI50 [20]
O=C1CCC[C@]2(CCC[C@@H](O)C2)N1,> 100 µM (inactive),> 100 µM (inactive),> 100 µM (inactive),> 100,> 100 µM (inactive),> 100 µM (inactive),> 100 µM (inactive),> 100 µM (inactive),> 100 µM (inactive),> 100 µM (inactive),> 100 µM (inactive),> 100 µM (inactive),> 100 µM (inactive),> 100 µM (inactive),> 100 µM (inactive),> 100 µM (inactive),> 100 µM (inactive),,,
CNNC1=NS(=O)(=O)c2cc(C)c(Cl)cc2S1,> 10 µM (inactive),> 10 µM (inactive),> 10 µM (inactive),> 10,> 10 µM (inactive),> 10 µM (inactive),> 10 µM (inactive),> 10 µM (inactive),> 10 µM (inactive),> 10 µM (inactive),> 10 µM (inactive),> 10 µM (inactive),> 10 µM (inactive),> 10 µM (inactive),> 10 µM (inactive),> 10 µM (inactive),> 10 µM (inactive),> 10 µM (inactive),> 10 µM (inactive),
CC1=CC(C)C/C=C/C2C3OC3(C)C(C)C3C(Cc4c[nH]c5ccccc45)NC(=O)C23C(=O)C=CC(=O)C1O (stereo not drawn),3.25 µM (inactive),4.56 µM (inactive),0.354 µM (active),2.26,6.79 µM (inactive),11.1 µM (inactive),15.2 µM (inactive),2.88 µM (inactive),5.53 µM (inactive),1.56 µM (inactive),12.8 µM (inactive),12.5 µM (inactive),10.7 µM (inactive),8.77 µM (inactive),0.728 µM (active),1.65 µM (inactive),6.27 µM (inactive),14.5 µM (inactive),14.7 µM (inactive),
CC1=NNC(=O)C1C1CC(c2c[nH]c3ccccc23)=NN=C1Cl (stereo not drawn),49.9 µM (inactive),37 µM (inactive),28.1 µM (inactive),35.8,> 100 µM (inactive),20.6 µM (inactive),21.9 µM (inactive),33.3 µM (inactive),54.7 µM (inactive),> 100 µM (inactive),34.6 µM (inactive),> 100 µM (inactive),42.8 µM (inactive),82 µM (inactive),75 µM (inactive),36.2 µM (inactive),> 100 µM (inactive),39.4 µM (inactive),87.5 µM (inactive),
COc1cc(C=C2C(=O)NC(=S)NC2=O)cc(OC)c1OC,> 100 µM (inactive),> 100 µM (inactive),> 100 µM (inactive),> 100,> 100 µM (inactive),> 100 µM (inactive),> 100 µM (inactive),> 100 µM (inactive),> 100 µM (inactive),> 100 µM (inactive),> 100 µM (inactive),> 100 µM (inactive),> 100 µM (inactive),> 100 µM (inactive),60.7 µM (inactive),> 100 µM (inactive),> 100 µM (inactive),> 100 µM (inactive),> 100 µM (inactive),
CC(C)C1/C(=N/O)CC(c2ccccc2)N(N=O)C1c1ccccc1 (stereo not drawn),31.1 µM (inactive),50.2 µM (inactive),16.9 µM (inactive),40.6,72.6 µM (inactive),68.2 µM (inactive),31.8 µM (inactive),28.8 µM (inactive),39.2 µM (inactive),23 µM (inactive),24.7 µM (inactive),,30.2 µM (inactive),53.7 µM (inactive),38.8 µM (inactive),39.6 µM (inactive),40.7 µM (inactive),47.1 µM (inactive),50.1 µM (inactive),
CCCN1C(=O)CC(C)N(Cc2ccccc2Cl)C1=S (stereo not drawn),36.4 µM (inactive),24.4 µM (inactive),16.9 µM (inactive),35.2,35.4 µM (inactive),33.4 µM (inactive),28.9 µM (inactive),22.3 µM (inactive),21.5 µM (inactive),25.4 µM (inactive),31 µM (inactive),50.2 µM (inactive),17.8 µM (inactive),30.6 µM (inactive),,10.6 µM (inactive),17.2 µM (inactive),23.5 µM (inactive),22.9 µM (inactive),
CCN1C(=O)C(=C/C=C/c2ccc([N+](=O)[O-])cc2)C(=O)N(CC)C1=S,18.6 µM (inactive),16.5 µM (inactive),35.1 µM (inactive),29.5,19.1 µM (inactive),15.1 µM (inactive),22.3 µM (inactive),18.3 µM (inactive),24.4 µM (inactive),,61.8 µM (inactive),> 100 µM (inactive),20.8 µM (inactive),21.5 µM (inactive),,> 100 µM (inactive),17.6 µM (inactive),18.2 µM (inactive),18 µM (inactive),
CC(C)(CO)NC(=O)Nc1c(C(F)(F)F)cc(-c2ccccc2)[nH]c1=O,> 100 µM (inactive),> 100 µM (inactive),> 100 µM (inactive),> 100,> 100 µM (inactive),> 100 µM (inactive),> 100 µM (inactive),> 100 µM (inactive),> 100 µM (inactive),> 100 µM (inactive),> 100 µM (inactive),> 100 µM (inactive),> 100 µM (inactive),> 100 µM (inactive),,> 100 µM (inactive),> 100 µM (inactive),> 100 µM (inactive),> 100 µM (inactive),
O=C(N/N=C(COc1ccccc1)\N=C\c1ccncc1)c1ccncc1,> 100 µM (inactive),> 100 µM (inactive),> 100 µM (inactive),> 100,> 100 µM (inactive),> 100 µM (inactive),> 100 µM (inactive),> 100 µM (inactive),> 100 µM (inactive),,> 100 µM (inactive),> 100 µM (inactive),,> 100 µM (inactive),34.5 µM (inactive),> 100 µM (inactive),> 100 µM (inactive),> 100 µM (inactive),> 100 µM (inactive),
c1ccc([B-]2(c3ccccc3)NCCCO2)cc1,56.9 µM (inactive),31.4 µM (inactive),24.9 µM (inactive),31.8,> 100 µM (inactive),55 µM (inactive),91.2 µM (inactive),59.4 µM (inactive),42.7 µM (inactive),48.9 µM (inactive),72.8 µM (inactive),> 100 µM (inactive),24.8 µM (inactive),70.8 µM (inactive),,34.9 µM (inactive),49.9 µM (inactive),47 µM (inactive),56.8 µM (inactive),44.9 µM (inactive)
OC(c1ccc(Br)cc1)(c1cccs1)C1CC1 (stereo not drawn),18.3 µM (inactive),24.4 µM (inactive),19.2 µM (inactive),25.4,23.3 µM (inactive),15.7 µM (inactive),17.7 µM (inactive),21.1 µM (inactive),20.7 µM (inactive),20.5 µM (inactive),22.4 µM (inactive),26.7 µM (inactive),18.7 µM (inactive),,25.8 µM (inactive),22.8 µM (inactive),27 µM (inactive),22.4 µM (inactive),22.2 µM (inactive),
CC1(C)CC(=O)c2c([nH]c(=S)c(C#N)c2-c2ccc(Br)cc2)C1,78.5 µM (inactive),> 100 µM (inactive),> 10 µM (inactive),45.8,41.7 µM (inactive),62.5 µM (inactive),,57.5 µM (inactive),70.5 µM (inactive),60.7 µM (inactive),40.7 µM (inactive),> 100 µM (inactive),46.9 µM (inactive),48.9 µM (inactive),> 100 µM (inactive),,52.2 µM (inactive),51.1 µM (inactive),44.1 µM (inactive),22.8 µM (inactive)
O=C1C(Cl)=C(Cl)C(=O)C2=C1C1c3ccccc3C2c2ccccc21,22.3 µM (inactive),14.8 µM (inactive),24.2 µM (inactive),39.3,28.9 µM (inactive),> 100 µM (inactive),59 µM (inactive),,> 100 µM (inactive),24 µM (inactive),32.5 µM (inactive),> 100 µM (inactive),> 100 µM (inactive),> 100 µM (inactive),> 100 µM (inactive),25.3 µM (inactive),> 100 µM (inactive),46.3 µM (inactive),38.7 µM (inactive),
CCOC(=O)c1cn(CC)c2cc3c(cc2c1=O)CCS3(=O)=O,> 100 µM (inactive),> 100 µM (inactive),,> 100,> 100 µM (inactive),> 100 µM (inactive),> 100 µM (inactive),,> 100 µM (inactive),> 100 µM (inactive),> 100 µM (inactive),> 100 µM (inactive),> 100 µM (inactive),> 100 µM (inactive),,> 100 µM (inactive),,> 100 µM (inactive),> 100 µM (inactive),> 100 µM (inactive)
Cc1cc2c(nn1)-c1ccccc1C2=O,> 10 µM (inactive),> 10 µM (inactive),> 10 µM (inactive),> 10,> 10 µM (inactive),> 10 µM (inactive),> 10 µM (inactive),> 10 µM (inactive),> 10 µM (inactive),> 10 µM (inactive),> 10 µM (inactive),> 10 µM (inactive),> 10 µM (inactive),> 10 µM (inactive),,> 10 µM (inactive),,> 10 µM (inactive),> 10 µM (inactive),> 10 µM (inactive)
